Measured values published in the NIST ThermoML archive (doi:10.1016/j.fluid.2018.04.025).

Experiment: xn = mol fraction of the nth substance listed
Settings: 101 kPa, Liquid; for viscosity: Falling or rolling sphere viscometry; for speed of sound: Frequency=3 MHz, Sing-around technique in a fixed-path interferometer; for mass density: Vibrating tube method

CCCC[n+]1ccn(C)c1.O=S(=O)([N-]S(=O)(=O)C(F)(F)F)C(F)(F)F + CCCCO
Settings | mass density [kg/m3] | speed of sound [m/s] | viscosity [mPa·s]
298.15 K, x1 = 0.1041 | 977.145 | 1204.1 | 4.37
298.15 K, x1 = 0.203 | 1088.59 | 1195.1 | 6.8
298.15 K, x1 = 0.3026 | 1170.97 | 1196.1 | 9.05
298.15 K, x1 = 0.409 | 1238.03 | 1200.2 | 11.83
298.15 K, x1 = 0.4987 | 1282.27 | 1204.3 | 14.91
298.15 K, x1 = 0.603 | 1325.15 | 1209.3 | 19.73
298.15 K, x1 = 0.6973 | 1357.81 | 1214.1 | 24.95
298.15 K, x1 = 0.809 | 1390.36 | 1219.2 | 32.11
298.15 K, x1 = 0.9104 | 1415.6 | 1223 | 40.26
298.15 K, x1 = 1 | 1436.02 | 1227.3 | 51.22
303.15 K, x1 = 0.1041 | 972.795 | 1189.7 | 3.85
303.15 K, x1 = 0.203 | 1084 | 1181.7 | 5.85
303.15 K, x1 = 0.3026 | 1166.33 | 1183.4 | 7.68
303.15 K, x1 = 0.409 | 1233.48 | 1188.1 | 9.93
303.15 K, x1 = 0.4987 | 1277.72 | 1192.4 | 12.53
303.15 K, x1 = 0.603 | 1320.71 | 1197.7 | 16.62
303.15 K, x1 = 0.6973 | 1353.3 | 1202.5 | 20.95
303.15 K, x1 = 0.809 | 1385.78 | 1207.8 | 26.73
303.15 K, x1 = 0.9104 | 1411.02 | 1211.9 | 33.01
303.15 K, x1 = 1 | 1431.22 | 1216.3 | 41.91
308.15 K, x1 = 0.1041 | 968.785 | 1175.3 | 3.27
308.15 K, x1 = 0.203 | 1079.65 | 1168.5 | 5.03
308.15 K, x1 = 0.3026 | 1161.89 | 1170.8 | 6.62
308.15 K, x1 = 0.409 | 1228.96 | 1176 | 8.51
308.15 K, x1 = 0.4987 | 1273.42 | 1180.7 | 10.71
308.15 K, x1 = 0.603 | 1316.29 | 1186.2 | 14.13
308.15 K, x1 = 0.6973 | 1348.83 | 1191.2 | 17.82
308.15 K, x1 = 0.809 | 1381.24 | 1196.7 | 22.61
308.15 K, x1 = 0.9104 | 1406.45 | 1200.9 | 27.62
308.15 K, x1 = 1 | 1426.43 | 1205.5 | 34.63
313.15 K, x1 = 0.1041 | 964.582 | 1161 | 2.87
313.15 K, x1 = 0.203 | 1075.17 | 1155.3 | 4.39
313.15 K, x1 = 0.3026 | 1157.28 | 1158.3 | 5.75
313.15 K, x1 = 0.409 | 1224.36 | 1163.9 | 7.36
313.15 K, x1 = 0.4987 | 1268.95 | 1168.9 | 9.24
313.15 K, x1 = 0.603 | 1311.81 | 1174.7 | 12.24
313.15 K, x1 = 0.6973 | 1344.2 | 1180 | 15.31
313.15 K, x1 = 0.809 | 1376.73 | 1185.6 | 19.32
313.15 K, x1 = 0.9104 | 1401.97 | 1189.9 | 23.41
313.15 K, x1 = 1 | 1421.64 | 1194.7 | 28.93
318.15 K, x1 = 0.1041 | 960.208 | 1146.9 | 2.53
318.15 K, x1 = 0.203 | 1070.62 | 1142.3 | 3.86
318.15 K, x1 = 0.3026 | 1152.59 | 1145.8 | 5.04
318.15 K, x1 = 0.409 | 1219.7 | 1151.9 | 6.42
318.15 K, x1 = 0.4987 | 1264.59 | 1157.2 | 8.04
318.15 K, x1 = 0.603 | 1307.37 | 1163.4 | 10.61
318.15 K, x1 = 0.6973 | 1339.66 | 1168.8 | 13.32
318.15 K, x1 = 0.809 | 1372.24 | 1174.6 | 16.64
318.15 K, x1 = 0.9104 | 1397.35 | 1179.1 | 19.93
318.15 K, x1 = 1 | 1416.84 | 1184 | 24.63
323.15 K, x1 = 0.1041 | 955.94 | 1132.9 | 2.24
323.15 K, x1 = 0.203 | 1065.98 | 1129.4 | 3.42
323.15 K, x1 = 0.3026 | 1147.85 | 1133.5 | 4.45
323.15 K, x1 = 0.409 | 1214.91 | 1140 | 5.65
323.15 K, x1 = 0.4987 | 1259.97 | 1145.7 | 7.07
323.15 K, x1 = 0.603 | 1302.8 | 1152.1 | 9.29
323.15 K, x1 = 0.6973 | 1335.11 | 1157.8 | 11.74
323.15 K, x1 = 0.809 | 1367.53 | 1163.8 | 14.53
323.15 K, x1 = 0.9104 | 1392.5 | 1168.4 | 17.32
323.15 K, x1 = 1 | 1411.89 | 1173.5 | 21.11
